Biological target: T1, CDK2 (Homo sapiens, UniProt P24941)
T1 construct: endogenous in cells; host or cells: OVCAR3 cells
Assay: Phospho-RB measurement in OVCAR3 cells (HTRF phospho-RB cellular kit)
Assay type: cell-based
Details: inhibition of RB phosphorylation at S807/811 (HTRF, TR-FRET ratio 665/620), 24 h compound treatment, 0.3 to 10,000 nM
Procedure, shortened: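 IC50 came from a four-parameter logistic fit of the DMSO-normalized TR-FRET ratio (665/620 nm). That ratio reflects RB phosphorylation at S807/811, read with an HTRF antibody pair 4 h after adding lysate at room temperature.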

Row | SMILES | IC50 [µM]
1 | CNS(=O)(=O)Nc1cccc(-c2nc(C(C)(C)C)sc2-c2ccnc(NC3CCN(S(=O)(=O)N4CCNCC4)CC3)n2)c1F [Example 146, N-(3-(2-(tert-butyl)-5-(2-((1-(piperazin-1-ylsulfonyl)piperidin-4-yl)amino)-pyrimidin-4-yl)thiazol-4-yl)-2-fluoro-phenyl)-methylamine-sulfonamide] | 3.01
2 | C[C@H]1Cc2ccccc2N1S(=O)(=O)Nc1cccc(-c2nc(C(C)(C)C)sc2-c2ccnc(NC3CCN(S(=O)(=O)N4CCNCC4)CC3)n2)c1F [Example 147, (S)-N-(3-(2-(tert-butyl)-5-(2-((1-(piperazin-1-ylsulfonyl)piperidin-4-yl)amino)pyrimidin-4-yl)thiazol-4-yl)-2-fluorophenyl)-2-methylindoline-1-sulfonamide] | 0.458
3 | CC1c2ccccc2CN1S(=O)(=O)Nc1cccc(-c2nc(C(C)(C)C)sc2-c2ccnc(NC3CCN(S(=O)(=O)N4CCNCC4)CC3)n2)c1F (centres unmarked) [Example 148, N-(3-(2-(tert-butyl)-5-(2-((1-(piperazin-1-ylsulfonyl)piperidin-4-yl)amino)-pyrimidin-4-yl)thiazol-4-yl)-2-fluoro-phenyl)-1-methylisoindoline-2-sulfonamide] | 0.21
4 | CC(C)(C)c1nc(-c2cccc(NS(=O)(=O)N3Cc4ccc(C#N)cc4C3)c2F)c(-c2ccnc(NC3CCN(S(=O)(=O)N4CCNCC4)CC3)n2)s1 [Example 149, N-(3-(2-(tert-butyl)-5-(2-((1-(piperazin-1-ylsulfonyl)piperidin-4-yl)amino)-pyrimidin-4-yl)thiazol-4-yl)-2-fluoro-phenyl)-5-cyanoisoindoline-2-sulfonamide] | 0.488
5 | CN(C)CCOc1cccc2c1CN(S(=O)(=O)Nc1cccc(-c3nc(C(C)(C)C)sc3-c3ccnc(NC4CCN(S(C)(=O)=O)CC4)n3)c1F)C2 [Example 150, N-(3-(2-(tert-butyl)-5-(2-((1-(methylsulfonyl)piperidin-4-yl)amino)-pyrimidin-4-yl)thiazol-4-yl)-2-fluoro-phenyl)-4-(2-(dimethylamino)-ethoxy)-isoindoline-2-sulfonamide] | 1.84
6 | CNC(=O)c1ccc2c(c1)N(S(=O)(=O)Nc1cccc(-c3nc(C(C)(C)C)sc3-c3ccnc(NC4CCN(S(C)(=O)=O)CC4)n3)c1F)CC2 [Example 151, 1-(N-(3-(2-(tert-butyl)-5-(2-((1-(methyl-sulfonyl)piperidin-4-yl)amino)pyrimidin-4-yl)thiazol-4-yl)-2-fluorophenyl)-sulfamoyl)-N-methylindoline-6-carboxamide] | 0.355
7 | CN(C)C(=O)c1ccc2c(c1)N(S(=O)(=O)Nc1cccc(-c3nc(C(C)(C)C)sc3-c3ccnc(NC4CCN(S(C)(=O)=O)CC4)n3)c1F)CC2 [Example 152, 1-(N-(3-(2-(tert-butyl)-5-(2-((1-(methyl-sulfonyl)piperidin-4-yl)amino)pyrimidin-4-yl)thiazol-4-yl)-2-fluorophenyl)-sulfamoyl)-N,N-dimethylindoline-6-carboxamide] | 0.397
8 | CC(C)(C)c1nc(-c2cccc(NS(=O)(=O)N3CCc4ccncc43)c2F)c(-c2ccnc(NC3CCN(S(C)(=O)=O)CC3)n2)s1 [Example 154, N-(3-(2-(tert-butyl)-5-(2-((1-(methylsulfonyl)-piperidin-4-yl)amino)-pyrimidin-4-yl)thiazol-4-yl)-2-fluoro-phenyl)-2,3-dihydro-1H-pyrrolo[2,3-c]-pyridine-1-sulfonamide] | 0.685
9 | CC(C)(C)c1nc(-c2cccc(NS(=O)(=O)N3CC4CC4C3)c2F)c(-c2ccnc(NC3CCN(S(=O)(=O)N4CCNCC4)CC3)n2)s1 (centres unmarked) [Example 155, N-(3-(2-(tert-butyl)-5-(2-((1-(piperazin-1-ylsulfonyl)piperidin-4-yl)amino)-pyrimidin-4-yl)thiazol-4-yl)-2-fluorophenyl)-3-azabicyclo[3.1.0]-hexane-3-sulfonamide] | 1.06
10 | CN(C)CCN(C)S(=O)(=O)N1CCC(Nc2nccc(-c3sc(C(C)(C)C)nc3-c3cccc(NS(=O)(=O)N4Cc5ccccc5C4)c3F)n2)CC1 [Example 156, N-(3-(2-(tert-butyl)-5-(2-((1-(N-(2-(dimethylamino)ethyl)-N-methyl-sulfamoyl)piperidin-4-yl)amino)-pyrimidin-4-yl)thiazol-4-yl)-2-fluoro-phenyl)isoindoline-2-sulfonamide] | 0.0903
11 | CN(C)CCN(C)S(=O)(=O)N1CCC(Nc2nccc(-c3sc(C(C)(C)C)nc3-c3cccc(NS(=O)(=O)N4Cc5ccncc5C4)c3F)n2)CC1 [Example 157, N-(3-(2-(tert-butyl)-5-(2-((1-(N-(2-(dimethyl-amino)ethyl)-N-methylsulfamoyl)piperidin-4-yl)amino)-pyrimidin-4-yl)thiazol-4-yl)-2-fluoro-phenyl)-1,3-dihydro-2H-pyrrolo [3,4-c]-pyridine-2-sulfonamide] | 0.191
12 | CC(C)(C)c1nc(-c2cccc(NS(=O)(=O)N3CCc4ccccc43)c2F)c(-c2ccnc(NC3CCN(S(=O)(=O)N4CCNCC4)CC3)n2)s1 [Example 158, N-(3-(2-(tert-butyl)-5-(2-((1-(piperazin-1-ylsulfonyl)piperidin-4-yl)amino)-pyrimidin-4-yl)thiazol-4-yl)-2-fluoro-phenyl)indoline-1-sulfonamide] | 0.0996
13 | CNCc1ccc2c(c1)CCN2S(=O)(=O)Nc1cccc(-c2nc(C(C)(C)C)sc2-c2ccnc(NC3CCN(S(C)(=O)=O)CC3)n2)c1F [Example 159, N-(3-(2-(tert-butyl)-5-(2-((1-(methylsulfonyl)-piperidin-4-yl)amino)-pyrimidin-4-yl)thiazol-4-yl)-2-fluoro-phenyl)-5-((methylamino)methyl)-indoline-1-sulfonamide] | 4.08
14 | CNCc1ccc2c(c1)N(S(=O)(=O)Nc1cccc(-c3nc(C(C)(C)C)sc3-c3ccnc(NC4CCN(S(C)(=O)=O)CC4)n3)c1F)CC2 [Example 160, N-(3-(2-(tert-butyl)-5-(2-((1-(methylsulfonyl)-piperidin-4-yl)amino)-pyrimidin-4-yl)thiazol-4-yl)-2-fluoro-phenyl)-6-((methylamino)methyl)-indoline-1-sulfonamide] | 4.04
15 | CN(C)C(=O)c1ccc2c(c1)CN(S(=O)(=O)Nc1cccc(-c3nc(C(C)(C)C)sc3-c3ccnc(NC4CCN(S(C)(=O)=O)CC4)n3)c1F)C2 [Example 161, 2-(N-(3-(2-(tert-butyl)-5-(2-((1-(methyl-sulfonyl)piperidin-4-yl)amino)pyrimidin-4~yl)thiazol~4-yl)-2-fluorophenyl)-sulfamoyl)-N,N-dimethyl-isoindoline-5-carboxamide] | 1.8
16 | CC(C)(C)c1nc(-c2cccc(NS(=O)(=O)N3CCc4cnccc43)c2F)c(-c2ccnc(NC3CCN(S(C)(=O)=O)CC3)n2)s1 [Example 162, N-(3-(2-(tert-butyl)-5-(2-((1-(methylsulfonyl)piperidin-4-yl)amino)-pyrimidin-4-yl)thiazol-4-yl)-2-fluoro-phenyl)-2,3-dihydro-1H-pyrrolo [3,2-c]-pyridine-1-sulfonamide] | 2.12
17 | CN(C)C(=O)c1cccc2c1CN(S(=O)(=O)Nc1cccc(-c3nc(C(C)(C)C)sc3-c3ccnc(NC4CCN(S(C)(=O)=O)CC4)n3)c1F)C2 [Example 163, 2-(N-(3-(2-(tert-butyl)-5-(2-((1-(methyl-sulfonyl)piperidin-4-yl)amino)pyrimidin-4-yl)thiazol-4-yl)-2-fluorophenyl)-sulfamoyl)-N, N-dimethyliso-indoline-4-carboxamide] | 2.43
18 | CNCCOc1cccc2c1CN(S(=O)(=O)Nc1cccc(-c3nc(C(C)(C)C)sc3-c3ccnc(NC4CCN(S(C)(=O)=O)CC4)n3)c1F)C2 [Example 164, N-(3-(2-(tert-butyl)-5-(2-((1-(methylsulfonyl)-piperidin-4-yl)amino)-pyrimidin-4-yl)thiazol-4-yl)-2-fluoro-phenyl)-4-(2-(methylamino)-ethoxy)-isoindoline-2-sulfonamide] | 2.67
19 | CC(C)(C)c1nc(-c2cccc(NS(=O)(=O)N3CCC4(CC4)C3)c2F)c(-c2ccnc(NC3CCN(S(C)(=O)=O)CC3)n2)s1 [Example 166, N-(3-(2-(tert-butyl)-5-(2-((1-(methylsulfonyl)-piperidin-4-yl)amino)-pyrimidin-4-yl)thiazol-4-yl)-2-fluoro-phenyl)-5-azaspiro[2.4] heptane-5-sulfonamide] | 0.277
20 | CN(C)Cc1cccc2c1CN(S(=O)(=O)Nc1cccc(-c3nc(C(C)(C)C)sc3-c3ccnc(NC4CCN(S(C)(=O)=O)CC4)n3)c1F)C2 [Example 167, N-(3-(2-(tert-butyl)-5-(2-((1-(methylsulfonyl)-piperidin-4-yl)amino)-pyrimidin-4-yl)thiazol-4-yl)-2-fluoro-phenyl)-4-((dimethylamino)-methyl)-isoindoline-2-sulfonamide] | 0.41
21 | CC(C)(C)c1nc(-c2cccc(NS(=O)(=O)N3CCc4ccc(C(N)=O)cc43)c2F)c(-c2ccnc(NC3CCN(S(C)(=O)=O)CC3)n2)s1 [Example 168, 1-(N-(3-(2-(tert-butyl)-5-(2-((1-(methyl-sulfonyl)piperidin-4-yl)amino)pyrimidin-4-yl)thiazol-4-yl)-2-fluorophenyl)-sulfamoyl)-indoline-6-carboxamide] | 1.59
22 | CC(C)(C)c1nc(-c2cccc(NS(=O)(=O)N3CCC4(CCCC4)C3)c2F)c(-c2ccnc(NC3CCN(S(C)(=O)=O)CC3)n2)s1 [Example 169, N-(3-(2-(tert-butyl)-5-(2-((1-(methylsulfonyl)-piperidin-4-yl)amino)-pyrimidin-4-yl)thiazol-4-yl)-2-fluoro-phenyl)-2-azaspiro [4.4]nonane-2-sulfonamide] | 2.25
23 | CC(C)(C)c1nc(-c2cccc(NS(=O)(=O)N3CCc4ccc(C#N)cc43)c2F)c(-c2ccnc(NC3CC4(C3)CS(=O)(=O)C4)n2)s1 [Example 170, N-(3-(2-(tert-butyl)-5-(2-((2,2-dioxido-2-thiaspiro[3.3]heptan-6-yl)amino)-pyrimidin-4-yl)thiazol-4-yl)-2-fluoro-phenyl)-6-cyano-indoline-1-sulfonamide] | 0.062

Source: patent US20260274833A1 (NiKang Therapeutics, Inc., priority 2022, published 2026)
